Patent US7151116B2, “Apoptolidin analogs and derivatives for inducing apoptosis in transformed cells” (Board of Trustees of The Leland Stanford Junior University, priority 2003, dated 2006)
Read-outs that look alike come from different tables or passages of the source.

Legend:
[1] = Stability in PBS (LC-MS); assay type: physicochemical; details: conditions that promote apoptolidin/isoapoptolidin isomerization
Experimental: (§1) To measure the kinetic parameters of apoptolidin and isoapoptolidin, solutions of both compounds in PBS (Dulbecco's phosphate buffered saline) were prepared and incubated at 37° C. in sealed reaction vessels. Periodically, the components present in the solutions were quantified using reverse-phase HPLC. Baseline separation was achieved using a 150×4.6 mm C18/5μ column eluting with a water/acetonitrile gradient from 40% to 90% over 30 min. After normalization for the difference in extinction coefficients (λobs=254 nm), these values were plotted and the rate constants k1 and k−1 were extracted by fitting the data to the integrated rate expression for a simple equilibrium. The kinetic parameters for apoptolidin and isoapoptolidin equilibrium over time in PBS at 37° C. The relative amounts of apoptolidin and isoapoptolidin at various time points are plotted in FIG. 2.
This experiment leads to the conclusion that while derivatization of apoptolidin at C-20 blocks isomerization to isoapoptolidin, the resulting derivatives (compounds 18 and 20) undergo other transformations.

[2] = biological target: T1, mitochondrial F0F1-ATPase (Saccharomyces cerevisiae, UniProt P00830+P07251+P38077); test: F0F1-ATPase inhibition assay in isolated yeast mitochondria (20 minute cell-free assay); assay type: biochemical; details: for F0F1-ATPase inhibitory activity (in words): comparison
T1 construct: endogenous in cells; host or cells: isolated yeast mitochondria (cell-free preparation)
Experimental: The ability of isoapoptolidin and the apoptolidin derivatives described in Examples 3 and 4 to inhibit F0F1-ATPase in isolated yeast mitochondria was studied. The F0F1-ATPase assay is a rapid 20 minute cell-free assay.
The functionalized macrolide and δ-lactone fragments were assayed for inhibitory activity against mitochondrial F0F1-ATPase.

[3] = Isomerization in basic CD3OD (LCMS and NMR); assay type: physicochemical
From the text: To prevent ring expansion, the primary alcohol may be efficiently converted to a methyl ether or benzoate ester by way of treatment with Meerwein's salt or benzoyl anhydride followed by deprotection, under this procedure, the following macrocycles resulted, respectively: Compound 23: Q^1=Q^2=Q^3=Q^4=Q^5=Q^7=H; Q^6=R^1=R^2=R^3=R^4=CH3 Compound 24: Q^1=Q^2=Q^3=Q^4=Q^5=Q^7=H; Q^6=[…]; R^1=R^2=R^3=R^4=CH3

[4] = Stability of solutions on storage (NMR, HPLC, UV-vis); assay type: physicochemical; details: for conversion in dilute aqueous solution: ambient temperature, HPLC or UV-vis
From the text: To study the kinetic parameters of isoapoptolidin, the conversion between apoptolidin and isoapoptolidin under biological assay and chemical isolation conditions was observed. […] During this time, no conversion to isoapoptolidin is observed, either by NMR or HPLC. […] Given that the conversion between apoptolidin and isoapoptolidin goes in both directions, it is likely that these two compounds are in equilibrium.

[5] = test system: rat glial cells transformed with the adenovirus E1A or E1A/E1B19K/E1B54K oncogenes; details: Seto et al., 1997; cited from earlier work
[6] = test system: untransformed rat glial cells; details: Seto et al., 1997; cited from earlier work
[7] = test system: normal fibroblasts; details: Seto et al., 1997; cited from earlier work
[8] = Apoptolidin-isoapoptolidin equilibrium kinetics in PBS at 37° C. (reverse-phase HPLC); assay type: physicochemical; details: solution starting from the labelled isomer (Q(t) = 0 at t = 0: apoptolidin, Q(t) = ∞ at t = 0: isoapoptolidin); for k1: apoptolidin to isoapoptolidin; for k−1: isoapoptolidin to apoptolidin
Experimental: as §1

[9] = test system: 60 human cancer cell lines (NCI 60); details: of 37,000 compounds tested by the National Cancer Institute; cited from earlier work
[10] = Stability in the presence of all F0F1-ATPase assay components; assay type: physicochemical; details: up to 24 hours
Experimental: To test the ability of isoapoptolidin to inhibit F0F1-ATPase activity, solutions of isoapoptolidin and apoptolidin including all assay components were analyzed for isomerization. After 20 minutes at 37° C., less than 12% conversion was detected.
To test the ability of apoptolidin derivatives to inhibit F0F1-ATPase activity, compound 16 from Table 3 was exposed to all of the assay components for up to 24 hours.

For `COC[C@@H](C[C@H]1O[C@@](O)([C@H](OC(C)=O)[C@@H]2C[C@H](OC)[C@@H](O)CC/C=C(C)/C=C/[C@@H](O[C@@H]3O[C@@H](C)[C@H](OC)[C@@H](O)[C@@H]3O)[C@H](C)/C=C(C)/C=C(C)/C=C(\C)C(=O)O2)[C@H](C)[C@@H](O)[C@H]1C)O[C@H]1C[C@](C)(O)[C@@H](O[C@H]2C[C@@H](OC)[C@H](O)[C@@H](C)O2)[C@H](C)O1` [Compound 18], the “stability in PBS” value [1] was “unstable under these conditions, producing several new compounds over a five hour period” and the IC50 [2] was 1100 ± 500 nM.
`COC[C@@H](C[C@H]1O[C@@](O)([C@H](O)[C@@H]2C[C@H](OC)[C@@H](O)CC/C=C(C)/C=C/[C@@H](O[C@@H]3O[C@@H](C)[C@H](OC)[C@@H](O)[C@@H]3OC(=O)c3ccccc3)[C@H](C)/C=C(C)/C=C(C)/C=C(\C)C(=O)O2)[C@H](C)[C@@H](O)[C@H]1C)O[C@H]1C[C@](C)(O)[C@@H](O[C@H]2C[C@@H](OC)[C@H](O)[C@@H](C)O2)[C@H](C)O1` [Compound 3] showed an IC50 [2] of 300 ± 500 nM.
In the case of `CO[C@@H]1[C@@H](O)[C@H](O)[C@H](O[C@@H]2/C=C/C(C)=C/CC[C@H](O)[C@@H](OC)C[C@@H](CO)OC(=O)/C(C)=C/C(C)=C/C(C)=C/[C@H]2C)O[C@H]1C` [Compound 22], the IC50 ([2]; Table 6, apoptolidin oxidative cleavage products, mitochondrial F0F1-ATPase, read-out: IC50) is reported as 16000 ± 5000 nM, the “F0F1-ATPase inhibitory activity (in words)” value [2] is reported as “potency comparable to isoapoptolidin” and the “isomerization to ring expanded isomer” value [3] is reported as “slowly isomerized to its ring expanded isomer”.
For `COC[C@@H](C[C@H]1O[C@@](O)([C@H](O)[C@@H]2C[C@H](OC)[C@@H](O)CC/C=C(C)/C=C/[C@@H](O[C@@H]3O[C@@H](C)[C@H](OC)[C@@H](OC(C)=O)[C@@H]3O)[C@H](C)/C=C(C)/C=C(C)/C=C(\C)C(=O)O2)[C@H](C)[C@@H](O)[C@H]1C)O[C@H]1C[C@](C)(O)[C@@H](O[C@H]2C[C@@H](OC)[C@H](O)[C@@H](C)O2)[C@H](C)O1` [Compound 17], the IC50 [2] was 400 ± 500 nM.
With `COC[C@@H](C[C@H]1O[C@@](O)([C@H](O)[C@@H]2C[C@H](OC)[C@@H](O)CC/C=C(C)/C=C/[C@@H](O[C@@H]3O[C@@H](C)[C@H](OC)[C@@H](O)[C@@H]3O)[C@H](C)/C=C(C)/C=C(C)/C=C(\C)C(=O)O2)[C@H](C)[C@@H](O)[C@H]1C)O[C@H]1C[C@](C)(O)[C@@H](O[C@H]2C[C@@H](OC)[C@H](OC(C)=O)[C@@H](C)O2)[C@H](C)O1` [Compound 15] the IC50 [2] was 800 ± 500 nM.
In the case of `COC[C@@H](C[C@H]1O[C@@](O)([C@H](O)[C@@H]2C[C@H](OC)[C@@H](O)CC/C=C(C)/C=C/[C@@H](O[C@@H]3O[C@@H](C)[C@H](OC)[C@@H](O)[C@@H]3O)[C@H](C)/C=C(C)/C=C(C)/C=C(\C)C(=O)O2)[C@H](C)[C@@H](O)[C@H]1C)O[C@H]1C[C@](C)(O)[C@@H](O[C@H]2C[C@@H](OC)[C@H](O)[C@@H](C)O2)[C@H](C)O1` [Apoptolidin], the “conversion in dilute aqueous solution” value [4] is listed as “convert to isoapoptolidin”, the “stable in solution (no conversion to isoapoptolidin by NMR or HPLC)” value ([4]; −20° C., dissolved in chloroform or methylene chloride) is listed as “up to three months” and the induction of apoptosis [5] is listed as “capable of inducing apoptosis”. The IC50 [2] was 700 ± 500 nM, the cytotoxic effect [6] was “no cytotoxic effect” and the cytotoxic effect [7] was “no cytotoxic effect”. The Keq [8] was 0.0616, the k1 [8] was 0.0656 h⁻¹ and the “k−1” value [8] was 0.106 h⁻¹. The “rank of selectivity among cytotoxic agents” value [9] was “among the top 0.1% most selective cytotoxic agents”.
In the case of `COC[C@@H](C[C@H]1O[C@@](O)([C@H](OC)[C@@H]2C[C@H](OC)[C@@H](O)CC/C=C(C)/C=C/[C@@H](O[C@@H]3O[C@@H](C)[C@H](OC)[C@@H](O)[C@@H]3O)[C@H](C)/C=C(C)/C=C(C)/C=C(\C)C(=O)O2)[C@H](C)[C@@H](O)[C@H]1C)O[C@H]1C[C@](C)(O)[C@@H](O[C@H]2C[C@@H](OC)[C@H](O)[C@@H](C)O2)[C@H](C)O1` [Compound 20], the “stability in PBS” value [1] is reported as “partially convert to a second isomeric compound over a period of several hours” and the IC50 [2] is reported as 2800 ± 500 nM.
With `COC[C@@H](C[C@H]1O[C@@](O)([C@H](O)[C@@H]2C[C@H](OC)[C@@H](OC(C)=O)CC/C=C(C)/C=C/[C@@H](O[C@@H]3O[C@@H](C)[C@H](OC)[C@@H](O)[C@@H]3O)[C@H](C)/C=C(C)/C=C(C)/C=C(\C)C(=O)O2)[C@H](C)[C@@H](O)[C@H]1C)O[C@H]1C[C@](C)(O)[C@@H](O[C@H]2C[C@@H](OC)[C@H](O)[C@@H](C)O2)[C@H](C)O1` [Compound 16] the “hydrolysis (ESIMS)” value [10] was “no hydrolysis was detected” and the IC50 [2] was 800 ± 500 nM.
Work on `COC[C@@H](C[C@H]1O[C@@](O)([C@H](O)[C@@H]2C[C@H](OC)[C@@H](O)CC/C=C(C)/C=C/[C@@H](O[C@@H]3O[C@@H](C)[C@H](OC)[C@@H](O)[C@@H]3O)[C@H](C)/C=C(C)/C=C(C)/C=C(\C)C(=O)O2)[C@H](C)[C@@H](OC(C)=O)[C@H]1C)O[C@H]1C[C@](C)(O)[C@@H](O[C@H]2C[C@@H](OC)[C@H](OC(C)=O)[C@@H](C)O2)[C@H](C)O1` [Compound 14] yielded an IC50 [2] of 400 ± 500 nM.
In the case of `COC[C@@H](C[C@H]1O[C@@](OC)([C@H](O)[C@@H]2C[C@H](OC)[C@@H](O)CC/C=C(C)/C=C/[C@@H](O[C@@H]3O[C@@H](C)[C@H](OC)[C@@H](O)[C@@H]3O)[C@H](C)/C=C(C)/C=C(C)/C=C(\C)C(=O)O2)[C@H](C)[C@@H](O)[C@H]1C)O[C@H]1C[C@](C)(O)[C@@H](O[C@H]2C[C@@H](OC)[C@H](O)[C@@H](C)O2)[C@H](C)O1` [Compound 1], the IC50 [2] is reported as 2300 ± 500 nM.
With `COC[C@@H](C[C@H]1O[C@@](O)([C@@H]2OC(=O)/C(C)=C/C(C)=C/C(C)=C/[C@@H](C)[C@H](O[C@@H]3O[C@@H](C)[C@H](OC)[C@@H](O)[C@@H]3O)/C=C/C(C)=C/CC[C@H](O)[C@@H](OC)C[C@@H]2O)[C@H](C)[C@@H](O)[C@H]1C)O[C@H]1C[C@](C)(O)[C@@H](O[C@H]2C[C@@H](OC)[C@H](O)[C@@H](C)O2)[C@H](C)O1` [Isoapoptolidin] the “conversion in dilute aqueous solution” value [4] was “convert to apoptolidin”, the “stable as a solution” value ([4]; −20° C., methanol) was “up to six months” and the IC50 [2] was 17000 ± 5000 nM. The “F0F1-ATPase inhibitory activity (in words)” value [2] was “reduced F0F1-ATPase inhibitory activity over apoptolidin”, the Keq [8] was 0.638 and the k1 [8] was 0.0626 h⁻¹. For the same molecule, the “k−1” value [8] was 0.0982 h⁻¹.
